Data on three molecules can be found in US8518885B2, “Heterocyclic peptide ketoamides” (Georgia Tech Research Corporation, priority 2008, dated 2013).

In assay [1] the target is T1, m-calpain (Rattus norvegicus, UniProt Q07009).
T1 sequence (Q07009 1-700): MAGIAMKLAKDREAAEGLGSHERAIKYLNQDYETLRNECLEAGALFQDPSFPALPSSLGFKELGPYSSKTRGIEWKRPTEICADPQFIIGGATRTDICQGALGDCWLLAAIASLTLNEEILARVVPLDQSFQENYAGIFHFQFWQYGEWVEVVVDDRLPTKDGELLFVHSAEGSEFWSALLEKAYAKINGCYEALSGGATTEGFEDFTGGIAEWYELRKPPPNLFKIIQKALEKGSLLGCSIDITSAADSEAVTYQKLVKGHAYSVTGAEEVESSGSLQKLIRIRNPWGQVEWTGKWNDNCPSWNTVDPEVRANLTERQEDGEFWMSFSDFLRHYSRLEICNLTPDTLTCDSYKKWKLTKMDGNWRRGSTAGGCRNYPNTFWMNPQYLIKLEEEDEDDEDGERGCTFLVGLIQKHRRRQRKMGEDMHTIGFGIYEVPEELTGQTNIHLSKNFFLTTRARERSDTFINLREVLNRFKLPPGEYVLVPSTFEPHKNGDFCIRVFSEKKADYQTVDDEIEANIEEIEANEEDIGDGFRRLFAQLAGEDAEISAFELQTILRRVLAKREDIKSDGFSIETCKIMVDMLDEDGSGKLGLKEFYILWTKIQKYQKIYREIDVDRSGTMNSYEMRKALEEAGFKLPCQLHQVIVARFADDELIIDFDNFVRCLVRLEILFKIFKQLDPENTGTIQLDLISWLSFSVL
T1 sequence (Q64537 87-270 partner limits assumed): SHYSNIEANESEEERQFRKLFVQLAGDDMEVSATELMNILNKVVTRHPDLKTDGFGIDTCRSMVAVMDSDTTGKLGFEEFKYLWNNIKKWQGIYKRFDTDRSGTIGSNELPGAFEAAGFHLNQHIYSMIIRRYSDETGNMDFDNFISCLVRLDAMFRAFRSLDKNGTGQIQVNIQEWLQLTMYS
The experiment in a line: Fluorimetric FRET-substrate assay of m-calpain inhibition. Format: biochemical. The settings on record: inhibitor 1 μM; 125 nM m-calpain; 1.3 μM (EDANS)-EPLFAERK-(DABCYL); 4 mM CaCl2; FIG. 1A. As to the method: (§1) FIG. 1 is a pair of graphs showing the inhibitory effect of Z-Leu-Abu-CONH—(CH2)3-adenin-9-yl, and Z-Leu-Abu-CONH—(CH2)3-(4-methylpiperazin-1-yl) on m-calpain (FIG. 1A) and μI-II (FIG. 1B). Duplicate assays were performed by adding 1.3 μM (EDANS)-EPLFAERK(SEQ ID NO:1)-(DABCYL) (A), 125 nM calpain (B), and 4 mM CaCl2 (C), then averaged to yield the plots shown. Autolytic inactivation of m-calpain, but not μI-II, was observed when no inhibitor was added (X). Immediately following addition of each inhibitor (D), the increase in fluorescence intensity was attenuated.
(§2) Enzymatic activity was monitored in real-time using a 1.5 mL quartz cuvette and a Perkin-Elmer LS50-B Luminescence Spectrophotometer. Duplicate assays were performed with 1.3 μM (EDANS)-EPLFAERK(SEQ ID NO:1)-(DABCYL) and 125 nM μI-II or m-calpain in a buffer solution containing 50 mM HEPES-HCl (pH 7.7) and 10 mM DTT. The reaction was initiated 420 seconds after mixing by the addition of 4 mM CaCl2 and monitored at excitation and emission wavelengths of 335 nm and 500 nm, respectively. After a waiting period of 100 seconds, the inhibitor solution (either Z-Leu-Abu-CONH—(CH2)3-adenin-9-yl, or Z-Leu-Abu-CONH—(CH2)3-(4-methylpiperazin-1-yl) dissolved in DMSO) was added at a concentration of 1 μM (for the m-calpain assays) or 50 μM (for the μI-II assays). […]

Assay [2] addresses μI-II (Rattus norvegicus, UniProt P97571). Description: Fluorimetric FRET-substrate assay of μI-II inhibition. The assay is classed as biochemical. The settings on record: inhibitor 50 μM; 125 nM μI-II; 1.3 μM (EDANS)-EPLFAERK-(DABCYL); 4 mM CaCl2; FIG. 1B. As to the method:
as §1, §2

Assay [3] addresses T2, calpain I (Homo sapiens, UniProt P07384).
T2 sequence (P07384 1-714): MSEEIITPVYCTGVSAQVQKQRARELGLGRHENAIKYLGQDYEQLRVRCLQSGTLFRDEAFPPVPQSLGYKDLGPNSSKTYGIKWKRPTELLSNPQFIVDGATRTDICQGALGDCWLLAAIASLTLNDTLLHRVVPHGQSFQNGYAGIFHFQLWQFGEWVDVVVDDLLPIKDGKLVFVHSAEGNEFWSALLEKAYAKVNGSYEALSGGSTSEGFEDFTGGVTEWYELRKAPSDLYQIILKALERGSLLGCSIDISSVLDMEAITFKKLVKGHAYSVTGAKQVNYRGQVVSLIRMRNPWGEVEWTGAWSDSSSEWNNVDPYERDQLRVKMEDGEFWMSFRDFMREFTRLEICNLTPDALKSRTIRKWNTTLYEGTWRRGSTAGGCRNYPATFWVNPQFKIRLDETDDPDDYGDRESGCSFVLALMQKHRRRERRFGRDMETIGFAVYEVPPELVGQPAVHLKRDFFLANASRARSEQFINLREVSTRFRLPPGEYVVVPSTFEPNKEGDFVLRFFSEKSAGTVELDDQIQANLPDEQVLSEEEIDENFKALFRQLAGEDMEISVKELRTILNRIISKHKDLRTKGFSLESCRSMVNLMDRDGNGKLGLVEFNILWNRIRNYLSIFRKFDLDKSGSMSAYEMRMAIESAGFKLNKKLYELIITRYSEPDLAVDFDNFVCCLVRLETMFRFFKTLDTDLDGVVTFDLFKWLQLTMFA
T2 sequence (P04632 1-268 partner): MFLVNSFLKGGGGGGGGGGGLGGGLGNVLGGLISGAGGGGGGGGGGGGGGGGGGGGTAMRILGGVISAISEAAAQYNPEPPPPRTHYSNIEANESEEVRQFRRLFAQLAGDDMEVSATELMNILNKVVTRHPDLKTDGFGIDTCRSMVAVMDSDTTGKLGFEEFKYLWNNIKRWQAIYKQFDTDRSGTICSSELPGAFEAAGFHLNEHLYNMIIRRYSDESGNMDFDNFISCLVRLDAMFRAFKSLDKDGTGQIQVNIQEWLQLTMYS
Particulars: literature statement; cited from earlier work.

In assay [4] the test system is other cysteine proteases such as cathepsins. The settings on record: literature statement; cited from earlier work.
Assay [5] deals with calpain II. The settings on record: literature statement; cited from earlier work.

μI-II, sequence (P97571 55-354 limits assumed): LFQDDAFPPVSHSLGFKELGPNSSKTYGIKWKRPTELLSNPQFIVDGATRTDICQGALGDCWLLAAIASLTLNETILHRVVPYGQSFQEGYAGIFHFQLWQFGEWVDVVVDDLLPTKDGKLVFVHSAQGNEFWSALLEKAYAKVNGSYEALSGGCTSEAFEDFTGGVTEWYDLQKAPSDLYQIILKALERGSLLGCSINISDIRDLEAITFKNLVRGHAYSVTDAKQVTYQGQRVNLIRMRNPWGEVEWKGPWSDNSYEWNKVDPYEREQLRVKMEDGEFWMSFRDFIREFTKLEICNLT

With `CCC(NC(=O)[C@H](CC(C)C)NC(=O)OCc1ccccc1)C(=O)C(=O)NCCCN1CCN(C)CC1` (stereo partly drawn) [3-(Benzyloxycarbonyl-L-leucylamino)-N-(3-(4-methylpiperazin-1-yl)propyl)-2-oxopentanamide], the “attenuation of the increase in fluorescence intensity (cleavage of FRET substrate) by m-calpain” value in assay [1] is recorded as “immediately attenuated”. Further, in assay [2], the “attenuation of the increase in fluorescence intensity (cleavage of FRET substrate) by μI-II” value is “immediately attenuated”.
In the case of `CCC(NC(=O)[C@H](CC(C)C)NC(=O)OCc1ccccc1)C(=O)C(=O)NCCCN1CCOCC1` (stereo partly drawn) [AK295, Z-Leu-Abu-CONH—(CH2)3-4-morpholinyl], in assay [3], the “inhibition of calpain I” value is given as “potent transition-state inhibitor”. Further, the “inhibitory activity toward other cysteine proteases such as cathepsins” value in assay [4] is recorded as “some inhibitory activity”. In addition, the “inhibition of calpain II” value in assay [5] was “potent transition-state inhibitor”.
Consider `CCC(NC(=O)[C@H](CC(C)C)NC(=O)OCc1ccccc1)C(=O)C(=O)NCCCn1cnc2c(N)ncnc21` (stereo partly drawn) [Z-Leu-Abu-CONH—(CH2)3-adenin-9-yl, 3-(Benzyloxycarbonyl-L-leucylamino)-N-(3-(6-amino-9H-purin-9-yl)propyl)-2-oxopentanamide], for which, in assay [1], the “attenuation of the increase in fluorescence intensity (cleavage of FRET substrate) by m-calpain” value is listed as “more distinct attenuation of fluorescence”. Besides, the “attenuation of the increase in fluorescence intensity (cleavage of FRET substrate) by μI-II” value in assay [2] is reported as “more distinct attenuation of fluorescence”.
